# Read-outs that look alike come from different tables or passages of the source.
# Key:
# NF-κB [1] = assay: NF-κB luciferase reporter assay; format: cell-based; settings: Homo sapiens, NF-κB-luciferase-transfected HEK293 cells, TNFα 50 ng/mL; for inhibition at 10 µM: mean ± SEM, n = 3, read-out: NF-κB Luciferase Activity Inh %
# Description: NF-κB Luciferase Reporter Vector was purchased from Signosis (Santa Clara, CA, USA) and transfected into HEK-293 cells using FuGENE HD (Promega, Fitchburg, MA, USA) following the manufacturer’s protocol. The transfected cells were incubated in serum-free DMEM for 16 h and then treated with DMSO or indicated compounds. After 3 h, cells were treated with or without 50 ng/mL of Recombinant Human TNFα Protein (R&D systems, Minneapolis, MN, USA) for another 3 h. The protein lysates were analyzed using Steady-Glo® Luciferase Assay System (Promega, Fitchburg, MA, USA) and TECAN Infinite 200 pro (Männedorf, Switzerland).
# [2] = Cell viability (WST-1), HEK293; format: cell-based; settings: human, HEK293 cells, mean ± SEM, n = 3
# Description: (§1) Cells were incubated with the WST-1 reagent (Thermo Fisher Scientific, Waltham, MA, USA) at 37 °C for 2 h. The cell viability was determined by spectrophotometer at 450 nm.
# [3] = Cell viability (WST-1), A549; format: cell-based; settings: human, A549 cells, mean ± SEM, n = 3
# Description: as §1
# NF-κB [4] = test system: NF-κB; parameters: method as in PMID 28291344; settings: cell-based activity reporter assay; cited from earlier work
# TNFα production [5] = assay: TNFα production in LPS-activated dTHP-1 cells (ELISA); format: cell-based; settings: Homo sapiens; for IC50: LPS-activated dTHP-1 cells, 24 h; for inhibition at 7.5 µM / inhibition at 15 µM: LPS 100 ng/mL for 24 h, dTHP-1 cells; for inhibition at 7.5 µM: read-out: TNFα Production Inh % (7.5 μM); for inhibition at 15 µM: read-out: TNFα Production Inh % (15 μM)
# Description: (§2) The HEK-293 (ATCC Cat# CRL-1573, RRID:CVCL_0045) and human monocytic THP−1 cells (ATCC Cat# TIB-202, RRID:CVCL_0006) were, respectively, cultured in DMEM and RPMI 1640 media supplemented with 10% fetal bovine serum, 2 mM L-glutamine, and 1× Antibiotic-Antimycotic at 37 °C in a humidified incubator with 5% CO2. THP−1 cells were differentiated by 100 nM phorbol-12-myristate-13-acetate (PMA) for 4 h and then rested for 44 h as dTHP−1 cells.
# (§3) The dTHP−1 cells were treated with indicated compounds for 3 h and then activated with or without 100 ng/mL lipopolysaccharide (LPS; E. coli 0111:B4) for another 24 h. The levels of human IL-6 and TNFα in supernatants were measured by DuoSet® ELISA Development System (R&D systems, Minneapolis, MN, USA) according to the manufacturer’s protocol.
# IL-6 production = IL-6 production in LPS-activated dTHP-1 cells (ELISA); format: cell-based, human; settings: for IC50 / inhibition at 7.5 µM / inhibition at 15 µM: Homo sapiens; for IC50: LPS-activated dTHP-1 cells, 24 h; for inhibition at 7.5 µM: read-out: IL-6 Production Inh % (7.5 μM); for inhibition at 15 µM: read-out: IL-6 Production Inh % (15 μM)
# Description: as §2, §3
# dTHP−1 cells = assay: Cell viability of dTHP-1 cells with or without LPS; format: cell-based, human; settings: in % (unit assumed); for Cell viability of dTHP-1 cells, 5 μM, LPS / Cell viability of dTHP-1 cells, 5 μM, without LPS: 5 μM (so in the source)
# Description: as §2, §1, §3
# phospho-NF-κB p65 (S536) = assay: Western blot phospho-NF-κB p65 (S536) in dTHP-1 cells; format: cell-based, human; settings: CAPE 10 µM; LPS-stimulated dTHP-1 cells
# Description: Cells were lysed in the commercial RIPA Buffer (Thermo Fisher Scientific, Waltham, MA, USA) and then centrifuged at 14,000× g for 20 min. […] Antibodies used in this study were phospho-NF-κB p65 (S468; catalog no. 3039), phospho-NF-κB p65 (S536; catalog no. 3033), phospho-IKKα/β (catalog no. 2697), and IκB (catalog no. 9242) from Cell Signaling Technology (Beverly, MA, USA); GAPDH from ABclonal (catalog no. A10868; Woburn, MA, USA). The labeled signals were determined using an enhanced chemiluminescence system (UVP, Upland, CA, USA). The experiments were performed at least two times in triplicate, providing basically the same results.
# The dTHP−1 cells were incubated with DMSO (0.1%), 19 (7.5 µM), or CAPE (10 µM) in medium for 3 h and then stimulated with or without LPS (0.1 µg/mL) for another 30 min. (A) The levels of phospho-NF-κB p65 (S536), phospho-IKKα/β, IκB, and GAPDH were determined by Western blot. The normalized (B) phospho-NF-κB p65 (S536), (C) phospho-IKKα/β, and (D) IκB levels were quantified. All data are expressed as mean ± SEM (n = 3); * p < 0.05 compared with the DMSO + LPS group.
# IKKα/β = test system: IKKα/β; parameters: method as in PMID 10768472; settings: read-out: IC50, targeting IKKα/β; cited from earlier work
# EGFR kinase = molecular target: EGFR kinase; parameters: method as in PMID 28291344; settings: cell-free kinase assay at 100 µM ATP; cited from earlier work
# NF-κB p65 subunit = test system: NF-κB p65 subunit; parameters: method as in PMID 28448872; settings: covalent modification of the p65 subunit; read-out: IC50, interfering with the binding of NF-κB to its DNA recognition site; cited from earlier work
# IKKβ = settings: read-out: cell-free IC50 IKKβ; cited from earlier work
# IKKα = settings: read-out: cell-free IC50 IKKα; cited from earlier work
# IL-1β production = settings: THP-1 macrophage model cell line; read-out: IC50 for suppression of IL-1β production; cited from earlier work
# TNFα production [6] = settings: THP-1 macrophage model cell line; read-out: IC50 for suppression of TNFα production; cited from earlier work
# TNFα = settings: cited from earlier work
# Recombinant EGFR kinase = Recombinant EGFR kinase (Homo sapiens, UniProt P00533); assay: Recombinant EGFR kinase activity; format: biochemical; settings: read-out: Recombinant EGFR Kinase Activity (%inh at 150 nM)
# Sequence of Recombinant EGFR kinase (P00533 25-1210): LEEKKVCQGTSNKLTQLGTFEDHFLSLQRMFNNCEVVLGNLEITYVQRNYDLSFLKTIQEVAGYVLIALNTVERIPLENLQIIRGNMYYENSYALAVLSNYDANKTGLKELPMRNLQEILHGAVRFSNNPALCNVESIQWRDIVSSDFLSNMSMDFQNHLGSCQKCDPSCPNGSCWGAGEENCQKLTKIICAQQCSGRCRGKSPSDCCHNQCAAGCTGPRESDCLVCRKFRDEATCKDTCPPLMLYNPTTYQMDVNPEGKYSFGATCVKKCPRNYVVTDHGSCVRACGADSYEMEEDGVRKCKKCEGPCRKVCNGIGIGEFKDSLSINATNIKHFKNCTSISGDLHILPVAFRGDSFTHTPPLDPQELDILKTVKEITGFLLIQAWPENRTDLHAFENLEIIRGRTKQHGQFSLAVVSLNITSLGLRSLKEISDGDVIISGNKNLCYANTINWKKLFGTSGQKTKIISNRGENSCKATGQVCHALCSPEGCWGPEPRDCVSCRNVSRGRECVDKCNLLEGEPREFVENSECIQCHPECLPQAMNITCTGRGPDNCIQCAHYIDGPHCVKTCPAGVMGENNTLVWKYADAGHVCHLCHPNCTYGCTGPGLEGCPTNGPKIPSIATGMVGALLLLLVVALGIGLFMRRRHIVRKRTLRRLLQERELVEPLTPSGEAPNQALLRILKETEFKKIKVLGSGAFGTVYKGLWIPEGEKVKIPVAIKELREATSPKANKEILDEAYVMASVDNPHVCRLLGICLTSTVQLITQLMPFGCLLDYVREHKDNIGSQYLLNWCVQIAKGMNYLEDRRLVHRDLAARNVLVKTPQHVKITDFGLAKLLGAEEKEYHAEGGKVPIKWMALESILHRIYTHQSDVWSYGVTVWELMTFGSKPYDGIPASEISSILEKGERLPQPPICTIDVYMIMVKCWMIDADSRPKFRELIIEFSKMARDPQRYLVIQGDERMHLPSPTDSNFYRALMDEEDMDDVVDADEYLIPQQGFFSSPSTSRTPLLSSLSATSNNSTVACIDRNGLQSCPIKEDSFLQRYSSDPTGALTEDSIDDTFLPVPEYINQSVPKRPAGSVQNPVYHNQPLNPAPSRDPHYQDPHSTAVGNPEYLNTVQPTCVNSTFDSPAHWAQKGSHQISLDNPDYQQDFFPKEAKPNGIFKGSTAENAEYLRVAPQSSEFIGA
# 26S proteasome = test system: 26S proteasome; parameters: method as in PMID 20420526; settings: read-out: IC50, inhibition of the activity of the 26S proteasome; cited from earlier work
# [7] = 7.5 μM, LPS 100 ng/mL for 24 h, dTHP-1 cells
# [8] = LPS 100 ng/mL for 24 h, dTHP-1 cells
molecule,measurement,setting,value
"S=C(NCc1ccccc1)Nc1ccc2ncnc(Nc3cccc(Cl)c3)c2c1 [A, reference compound]",inhibition at 10 µM,NF-κB [1],94.6 ± 1.5%
same,IC50,NF-κB [1],0.79 µM
same,viability at 10 µM,[2],72.4 ± 3.9%
same,viability at 10 µM,[3],81.7 ± 1.2%
same,IC50,NF-κB [4],3.7 µM
"O=C(/C=C/c1ccc(O)c(O)c1)OCCc1ccccc1 [CAPE, caffeic acid phenethyl ester, reference compound]",inhibition at 10 µM,NF-κB [1],72.8%
same,IC50,TNFα production [5],11.4 ± 0.21 µM
same,IC50,IL-6 production,1.1 ± 0.36 µM
same,"Cell viability of dTHP-1 cells, 10 μM, LPS","dTHP−1 cells; CAPE 10 μM, LPS 100 ng/mL for 24 h",52.2 ± 9.7
same,"Cell viability of dTHP-1 cells, 10 μM, without LPS","dTHP−1 cells; CAPE 10 μM, no LPS",97.8 ± 0.41
same,Phosphorylation of p65 at Ser536,phospho-NF-κB p65 (S536),slight reduction in the p65 phosphorylation
cacospongiolide B,IC50,IKKα/β,0.26 µM
CC(C)(C)c1ccc(Nc2ncnc3ccc(NC(=S)NCc4ccccc4)cc23)cc1 [C],IC50,NF-κB [4],5.5 µM
same,IC50,EGFR kinase,> 0.15 µM
C=C1C(=O)O[C@@H]2C[C@@H](C)[C@@H]3C=CC(=O)[C@@]3(C)[C@@H](O)[C@H]12 [helenalin],IC50,NF-κB p65 subunit,5 µM
Cc1ccc2nc(NCCN)c3ncc(C)n3c2c1 [BMS-345541],IC50,IKKβ,0.3 µM
same,IC50,IKKα,4 µM
same,IC50,IL-1β production,~5 µM
same,IC50,TNFα production [6],~5 µM
same,inhibition of TNFα in mice after administration of LPS,TNFα,effective in the inhibition of TNFα in mice
"Fc1ccc(CNC(=S)Nc2ccc3ncnc(Nc4cccc(Cl)c4)c3c2)c(F)c1 [Compound 6, 1-(4-((3-chlorophenyl)amino)quinazolin-6-yl)-3-(2,4-difluorobenzyl)thiourea]",inhibition at 10 µM,NF-κB [1],78.4 ± 2.7%
same,IC50,NF-κB [1],1.6 µM
same,viability at 10 µM,[2],85.5 ± 6.4%
same,viability at 10 µM,[3],75.5 ± 2.9%
same,inhibition at 0.15 µM,Recombinant EGFR kinase,68%
same,inhibition at 7.5 µM,TNFα production [5],61.1 ± 5.8%
same,inhibition at 15 µM,TNFα production [5],76.6 ± 3.8%
same,IC50,TNFα production [5],4.4 ± 0.85 µM
same,IL-6 Production Inh % (7.5 μM),IL-6 production; [7],almost complete blockage
same,inhibition at 7.5 µM,IL-6 production; [7],97.6 ± 0.6%
same,inhibition at 15 µM,IL-6 production; [8],98.2 ± 1.3%
same,IC50,IL-6 production,0.36 ± 0.07 µM
same,"Cell viability of dTHP-1 cells, 5 μM, LPS",dTHP−1 cells; LPS 100 ng/mL for 24 h,5.0 ± 0.35
same,"Cell viability of dTHP-1 cells, 5 μM, without LPS",dTHP−1 cells; no LPS,43.6 ± 9.0
same,"Cell viability of dTHP-1 cells, 7.5 μM, without LPS","dTHP−1 cells; 7.5 μM, no LPS",62.0 ± 14.5
same,melting point,,178 to 180 °C
"COc1ccc(CNC(=S)Nc2ccc3ncnc(Nc4cccc(Cl)c4)c3c2)cc1 [Compound 2, 1-(4-((3-Chlorophenyl)amino)quinazolin-6-yl)-3-(4-methoxybenzyl)thiourea]",inhibition at 10 µM,NF-κB [1],94.6 ± 0.1%
same,IC50,NF-κB [1],1.7 µM
same,viability at 10 µM,[2],101 ± 7.4%
same,viability at 10 µM,[3],95.4 ± 1.9%
same,inhibition at 0.15 µM,Recombinant EGFR kinase,67%
same,inhibition at 7.5 µM,TNFα production [5],32.5 ± 8.5%
same,inhibition at 15 µM,TNFα production [5],60.4 ± 1.8%
same,IC50,TNFα production [5],10.2 ± 0.27 µM
same,inhibition at 7.5 µM,IL-6 production; [7],76.2 ± 13.3%
same,inhibition at 15 µM,IL-6 production; [8],87.5 ± 6.8%
same,IC50,IL-6 production,1.2 ± 0.12 µM
same,"Cell viability of dTHP-1 cells, 5 μM, LPS",dTHP−1 cells; LPS 100 ng/mL for 24 h,78.8 ± 5.3
same,"Cell viability of dTHP-1 cells, 5 μM, without LPS",dTHP−1 cells; no LPS,94.2 ± 1.6
same,"Cell viability of dTHP-1 cells, 7.5 μM, LPS","dTHP−1 cells; 7.5 μM, LPS 100 ng/mL for 24 h",57.5 ± 1.4
same,"Cell viability of dTHP-1 cells, 7.5 μM, without LPS","dTHP−1 cells; 7.5 μM, no LPS",99.2 ± 1.5
same,melting point,,165 to 167 °C
"S=C(Nc1ccc2ncnc(Nc3cccc(Cl)c3)c2c1)NC1CC1 [Compound 17, 1-(4-((3-Chlorophenyl)amino)quinazolin-6-yl)-3-cyclopropylthiourea]",inhibition at 10 µM,NF-κB [1],47 ± 5.3%
same,IC50,NF-κB [1],> 10 µM
same,viability at 10 µM,[2],103 ± 8.4%
same,viability at 10 µM,[3],102.6 ± 0.2%
same,inhibition at 0.15 µM,Recombinant EGFR kinase,36.5%
same,inhibition at 7.5 µM,TNFα production [5],19 ± 8%
same,inhibition at 15 µM,TNFα production [5],62 ± 4.2%
same,IC50,TNFα production [5],12.3 ± 1 µM
same,inhibition at 7.5 µM,IL-6 production; [7],86 ± 2.3%
same,inhibition at 15 µM,IL-6 production; [8],95.8 ± 0.33%
same,IC50,IL-6 production,0.72 ± 0.17 µM
same,"Cell viability of dTHP-1 cells, 5 μM, LPS",dTHP−1 cells; LPS 100 ng/mL for 24 h,62.0 ± 3.4
same,"Cell viability of dTHP-1 cells, 5 μM, without LPS",dTHP−1 cells; no LPS,84.5 ± 4.8
same,"Cell viability of dTHP-1 cells, 7.5 μM, without LPS","dTHP−1 cells; 7.5 μM, no LPS",94.3 ± 1.9
same,melting point,,219.1 to 220.2 °C
S=C(NCc1ccccc1)Nc1ccc2ncnc(Nc3ccc(Br)cc3)c2c1 [B],IC50,NF-κB [4],3.8 µM
same,IC50,EGFR kinase,> 0.15 µM
C[C@@]12OC(=O)[C@]1([C@@H](O)[C@@H]1C=CCCC1)NC(=O)[C@@H]2CCCl [salinosporamide A],IC50,26S proteasome,0.0013 µM
